Values of other authors in patent US20110257145A1, “METHOD OF TREATING NEUROLOGICAL DISEASES” (THE BOARD OF TRUSTEES OF THE UNIVERSITY OF ILLINOIS, priority 2008, published 2011).

Tests used:
mouse PKCα = mouse PKCα (Mus musculus, UniProt P20444); settings: PKC binding, value marked [52]; read-out: K1[nm] ± SEM; cited from earlier work
[1] = system: fibroblasts from AD patients; settings: sub-nanomolar concentrations; cited from earlier work
[2] = system: AD double-transgenic mouse; settings: in vivo; cited from earlier work

## CCC/C=C/C=C/C(=O)O[C@H]1/C(=C/C(=O)OC)C[C@H]2C[C@H]([C@@H](C)O)OC(=O)C[C@H](O)C[C@@H]3C[C@H](OC(C)=O)C(C)(C)[C@](O)(C[C@@H]4C/C(=C/C(=O)OC)C[C@H](/C=C/C(C)(C)[C@]1(O)O2)O4)O3 [Bryostatin 1]
Mouse PKCα
  Ki: 1.4 nM
[1]
  secretion of the α-secretase product sAPPα: dramatically enhances
[2]
  behavioral outcome: improved
  brain Aβ40: decreased
  brain Aβ42: decreased
  rate of premature death: ameliorated
